Experimental data reported in paper PMC10233829 (ACS Omega, 2023).
Values after ≈ are worked out from the molar mass of the structure shown.

What was measured:
[1] = test system: S. aureus NCTC 4163; test: MIC, twofold microdilution, standard strain; type: cell-based; conditions: Staphylococcus aureus, NCTC4163, 18 h
[2] = test system: S. aureus ATCC 25923; test: MIC, twofold microdilution, standard strain; type: cell-based; conditions: Staphylococcus aureus, ATCC25923, 18 h
[3] = test system: S. aureus ATCC 6538; test: MIC, twofold microdilution, standard strain; type: cell-based, Staphylococcus aureus; conditions: Staphylococcus aureus, ATCC6538; standard strain, 18 h
[4] = test system: S. aureus ATCC 29213; test: MIC, twofold microdilution, standard strain; type: cell-based; conditions: Staphylococcus aureus, ATCC29213, 18 h
[5] = test system: S. epidermidis ATCC 12228; test: MIC, twofold microdilution, standard strain; type: cell-based; conditions: Staphylococcus epidermidis, ATCC12228, 18 h
[6] = test system: S. epidermidis ATCC 35984; test: MIC, twofold microdilution, standard strain; type: cell-based; conditions: Staphylococcus epidermidis, ATCC35984, 18 h
[7] = test system: P. aeruginosa ATCC 15442; test: MIC, twofold microdilution, standard strain; type: cell-based, Pseudomonas aeruginosa; conditions: Pseudomonas aeruginosa, ATCC15442; standard strain, 18 h
[8] = test system: E. coli ATCC 25922; test: MIC, twofold microdilution, standard strain; type: cell-based, Escherichia coli; conditions: Escherichia coli, ATCC25922; standard strain, 18 h
[9] = test system: S. aureus 180; test: MIC, twofold microdilution, clinical strain; type: cell-based; conditions: Staphylococcus aureus, 18 h
[10] = test system: S. aureus 5595; test: MIC, twofold microdilution, clinical strain; type: cell-based; conditions: Staphylococcus aureus, 18 h
[11] = test system: S. aureus T5595; test: MIC, twofold microdilution, clinical strain; type: cell-based, Staphylococcus aureus; conditions: for MIC: Staphylococcus aureus, T5595, 18 h
[12] = test system: S. aureus T5591; test: MIC, twofold microdilution, clinical strain; type: cell-based, Staphylococcus aureus; conditions: for MIC: Staphylococcus aureus, T5591, 18 h
[13] = test system: S. epidermidis 4341; test: MIC, twofold microdilution, clinical strain; type: cell-based; conditions: Staphylococcus epidermidis, 18 h
[14] = test system: S. epidermidis 5253; test: MIC, twofold microdilution, clinical strain; type: cell-based, Staphylococcus epidermidis; conditions: for MIC: Staphylococcus epidermidis, 5253, 18 h
[15] = test system: S. epidermidis KR4243/1; test: MIC, twofold microdilution, clinical strain; type: cell-based; conditions: Staphylococcus epidermidis, 18 h
[16] = test system: S. pasteuri KR 4358; test: MIC, twofold microdilution, clinical strain; type: cell-based; conditions: Staphylococcus pasteuri, KR4358, 18 h
[17] = test system: P. aeruginosa 37; test: MIC, twofold microdilution, clinical strain; type: cell-based; conditions: Pseudomonas aeruginosa, 18 h
[18] = test system: P. aeruginosa 659; test: MIC, twofold microdilution, clinical strain; type: cell-based; conditions: Pseudomonas aeruginosa, 18 h
[19] = test system: E. coli 951; test: MIC, twofold microdilution, clinical strain; type: cell-based; conditions: Escherichia coli, 18 h
[20] = test system: E. coli 520; test: MIC, twofold microdilution, clinical strain; type: cell-based; conditions: Escherichia coli, 18 h
[21] = test system: E. coli 600; test: MIC, twofold microdilution, clinical strain; type: cell-based, Escherichia coli; conditions: for MIC: Escherichia coli, 600, 18 h
[22] = test system: E. cloacae 8; test: MIC, twofold microdilution, clinical strain; type: cell-based, Escherichia cloacae; conditions: Enterobacter cloacae, 8; clinical strain, 18 h
[23] = test system: K. pneumoniae 28; test: MIC, twofold microdilution, clinical strain; type: cell-based; conditions: Klebsiella pneumoniae, 18 h
[24] = test system: K. pneumoniae 510; test: MIC, twofold microdilution, clinical strain; type: cell-based, Klebsiella pneumoniae; conditions: Klebsiella pneumoniae, 510; clinical strain, 18 h
[25] = test system: M. tuberculosis H37Rv; test: Tuberculostatic activity, Microplate Alamar Blue Assay (MIC); type: cell-based, Mycobacterium tuberculosis; conditions: Mycobacterium tuberculosis, H37RV; MABA; read-out: MIC M. tuberculosis H37Rv
[26] = test system: M. tuberculosis Spec. 192; test: as above; type: cell-based; conditions: Mycobacterium tuberculosis, MABA, read-out: MIC M. tuberculosis Spec. 192 (sensitive to tuberculostatics)
[27] = test system: M. tuberculosis Spec 210; test: microbe, parasite or virus in culture; type: cell-based, Mycobacterium tuberculosis; conditions: M. tuberculosis Spec. 210
[28] = test system: PC3 cells; test: MTT assay, cytotoxic activity; type: cell-based, human; conditions: Homo sapiens, PC-3, 72 h, MTT, 72 h
Procedure: Metastatic prostate cancer (PC3) and human immortal keratinocyte (HaCaT) cell lines were purchased from the American Type Culture Collection (ATCC, Rockville, MD, USA) and cultured in MEM (minimal essential medium, Thermo Sci, USA), RPMI 1640 (Roswell Park Memorial Institute, Biowest SAS, France), and DMEM (Dulbecco’s Modified Eagle’s Medium, Biowest SAS, France). Cells were seeded in 6 mL medium in a tissue culture flask (50 mL) in a 37 °C/5% CO2 humidified incubator. […] MTT analysis was performed according to a previous study.[59] Untreated cells were used as controls. Cell absorbance results were inserted into the formula for the relative MTT level (%). It allows to calculate the viability of cells under the influence of the tested compounds. Cell viability was expressed as the percentage of MTT reduction in cells treated with tested compounds compared to the control sample. The relative MTT level was calculated using the formula [100%] = A/B × 100% where A—the test sample absorbance and B—the control sample absorbance.

[29] = MTT assay, cytotoxic activity; type: cell-based; conditions: human, HaCaT cells (immortal keratinocytes); MTT, 72 h, normal cell line; read-out: IC50 HaCaT
Procedure: Cells were seeded in 6 mL medium in a tissue culture flask (50 mL) in a 37 °C/5% CO2 humidified incubator. […] MTT analysis was performed according to a previous study.[59] Untreated cells were used as controls. Cell absorbance results were inserted into the formula for the relative MTT level (%). It allows to calculate the viability of cells under the influence of the tested compounds. Cell viability was expressed as the percentage of MTT reduction in cells treated with tested compounds compared to the control sample. The relative MTT level was calculated using the formula [100%] = A/B × 100% where A—the test sample absorbance and B—the control sample absorbance.

[30] = test system: P. aeruginosa ATCC 15442 and E. coli ATCC 25922; test: MIC, standard Gram-negative rods as a panel; type: cell-based; conditions: P. aeruginosa ATCC 15442, E. coli ATCC 25922; read-out: MIC against standard Gram-negative rods (range over strains)
[31] = test system: clinical bacterial strains; test: MIC, clinical isolates as groups of strains; type: cell-based; conditions: for MIC: clinical strains, read-out: MIC against selected E. coli and E. cloacae strains

Compound	MIC [1]	MIC [2]	MIC [3]	MIC [4]	MIC [5]	MIC [6]	MIC [7]	MIC [8]	MIC [9]	MIC [10]	MIC [11]	MIC [12]	MIC [13]	MIC [14]	MIC [15]	MIC [16]	MIC [17]	MIC [18]	MIC [19]	MIC [20]	further results
O=C(O)c1cn(C2CC2)c2cc(N3CCN(C(=O)CBr)CC3)c(F)cc2c1=O [Compound 8, 7-[4-(2-Bromoacetyl)-piperazin-1-yl]-1-cyclopropyl-6-fluoro-4-oxo-1,4-dihydro-quinoline-3-carboxylic Acid]	0.2 µg/mL (≈ 0.442 µM)	0.2 µg/mL (≈ 0.442 µM)	0.2 µg/mL (≈ 0.442 µM)	0.4 µg/mL (≈ 0.884 µM)	0.2 µg/mL (≈ 0.442 µM)	0.2 µg/mL (≈ 0.442 µM)	3.2 µg/mL (≈ 7.08 µM)	0.2 µg/mL (≈ 0.442 µM)	0.8 µg/mL (≈ 1.77 µM)	0.4 µg/mL (≈ 0.884 µM)	0.8 µg/mL (≈ 1.77 µM)	1.6 µg/mL (≈ 3.54 µM)	12.8 µg/mL (≈ 28.3 µM)	12.8 to 25.6 µg/mL (≈ 28.3 to 56.6 µM)	0.4 µg/mL (≈ 0.884 µM)	0.2 µg/mL (≈ 0.442 µM)	12.8 µg/mL (≈ 28.3 µM)	6.4 µg/mL (≈ 14.2 µM)	6.4 µg/mL (≈ 14.2 µM)	0.2 µg/mL (≈ 0.442 µM)	MIC S. epidermidis 5253 ([14]; 18 h): 25.6 µg/mL (≈ 56.6 µM); MIC [21]: 0.2 µg/mL (≈ 0.442 µM); MIC [22]: 0.8 µg/mL (≈ 1.77 µM); MIC [23]: > 25.6 µg/mL; MIC [24]: 25.6 µg/mL (≈ 56.6 µM); MIC [25]: 32 µg/mL (≈ 70.8 µM); MIC [26]: 32 µg/mL (≈ 70.8 µM); fold more effective than the reference tuberculostatics [27]: 2–8 fold; IC50 [28]: 39.6 ± 4.3 µM; IC50 at 72 h [29]: 44.9 ± 9 µM; MIC [30]: ≤ 1 µg/mL; MIC [31]: 0.1 to 0.8 µg/mL (≈ 0.221 to 1.77 µM)
O=C(O)c1cn(C2CC2)c2cc(N3CCN(C(=O)CCBr)CC3)c(F)cc2c1=O [Compound 9, 7-[4-(3-Bromopropionyl)-piperazin-1-yl]-1-cyclopropyl-6-fluoro-4-oxo-1,4-dihydro-quinoline-3-carboxylic Acid]	0.1 µg/mL (≈ 0.214 µM)	0.2 µg/mL (≈ 0.429 µM)	0.2 µg/mL (≈ 0.429 µM)	0.2 µg/mL (≈ 0.429 µM)	0.2 µg/mL (≈ 0.429 µM)	0.2 µg/mL (≈ 0.429 µM)	12.8 µg/mL (≈ 27.4 µM)	0.4 µg/mL (≈ 0.858 µM)	0.5 µg/mL (≈ 1.07 µM)	0.5 µg/mL (≈ 1.07 µM)	0.1 to 0.2 µg/mL (≈ 0.214 to 0.429 µM)	0.1 to 0.2 µg/mL (≈ 0.214 to 0.429 µM)	16 µg/mL (≈ 34.3 µM)	128 µg/mL (≈ 274 µM)	0.1 µg/mL (≈ 0.214 µM)	0.2 µg/mL (≈ 0.429 µM)	128 µg/mL (≈ 274 µM)	> 25.6 µg/mL	64 µg/mL (≈ 137 µM)	0.8 µg/mL (≈ 1.72 µM)	MIC S. aureus T5595 ([11]; 18 h): 0.2 µg/mL (≈ 0.429 µM); MIC S. aureus T5591 ([12]; 18 h): 0.1 µg/mL (≈ 0.214 µM); MIC E. coli 600 ([21]; 18 h): –0.4 μg/mL; MIC [22]: 2 µg/mL (≈ 4.29 µM); MIC [23]: > 25.6 µg/mL; MIC [24]: > 25.6 µg/mL; MIC [25]: 2 µg/mL (≈ 4.29 µM); MIC [26]: 2 µg/mL (≈ 4.29 µM); fold more effective than the reference tuberculostatics [27]: 8–32 fold; IC50 [28]: 69.1 ± 5.8 µM; IC50 at 72 h [29]: > 100 µM; MIC [30]: ≤ 1 µg/mL; times more powerful than CP ([31]; S. aureus T5595 and T5591): 1.25–2.5 times; MIC [31]: 0.1 to 0.8 µg/mL (≈ 0.214 to 1.72 µM)
O=C(O)c1cn(C2CC2)c2cc(N3CCN(CCCC(=O)N4CCN(c5cc6c(cc5F)c(=O)c(C(=O)O)cn6C5CC5)CC4)CC3)c(F)cc2c1=O [Compound 18, CP–Butyryl–CP Dimer]	2 µg/mL (≈ 2.74 µM)	4 µg/mL (≈ 5.47 µM)	2 µg/mL (≈ 2.74 µM)	4 µg/mL (≈ 5.47 µM)	1 µg/mL (≈ 1.37 µM)	16 µg/mL (≈ 21.9 µM)	4 µg/mL (≈ 5.47 µM)	16 µg/mL (≈ 21.9 µM)	6.4 µg/mL (≈ 8.76 µM)	6.4 µg/mL (≈ 8.76 µM)	6.4 µg/mL (≈ 8.76 µM)	6.4 µg/mL (≈ 8.76 µM)	> 25.6 µg/mL	> 25.6 µg/mL	3.2 µg/mL (≈ 4.38 µM)	3.2 µg/mL (≈ 4.38 µM)	12.8 µg/mL (≈ 17.5 µM)	> 25.6 µg/mL	6.4 µg/mL (≈ 8.76 µM)	1.6 µg/mL (≈ 2.19 µM)	MIC [21]: 0.4 µg/mL (≈ 0.547 µM); MIC [22]: 0.8 µg/mL (≈ 1.09 µM); MIC [23]: > 25.6 µg/mL; MIC [24]: > 25.6 µg/mL; MIC [25]: 8 µg/mL (≈ 10.9 µM); MIC [26]: 16 µg/mL (≈ 21.9 µM); fold more effective than the reference tuberculostatics [27]: 2–8 fold; IC50 [28]: > 100 µM; IC50 at 72 h [29]: 92.2 ± 8.7 µM; MIC [31]: 0.1 to 0.8 µg/mL (≈ 0.137 to 1.09 µM)
